Values of other authors as cited in PubChem BioAssay AID1259409 (Chemical Carcinogenesis Research Information System (CCRIS), 2018).

Test system: rodent chemically induced tumor inhibition, incidence and multiplicity
Test: CCRIS tumor inhibitor studies
Details: Route [Inhibitor]: ORAL, Species: RAT

Question: Which results are given for `C=CC1=C(C)C2=CC3=NC(=C(CC(=O)O)C4=NC(=C(C)C4=C(O)O)C=c4[nH]c(c(C)c4CC)=CC1=N2)C(CCC(=O)O)C3C` (stereo not given)?
Answer: tumour outcome (control, treated, inhibition, significance) (Carcinogen: 1,2-DIMETHYLHYDRAZINE [540-73-8], Dose [Inhibitor]: 0, 0.001% (W/V BASED ON TOTAL CHLORINS) IN DRINKING WATER BEGINNING 1 WK POST CARCINOGEN TREATMENT FOR THE DURATION STUD, Strain/Sex: F344/MALE, Target Tissue: Type of Lesion: COLON: TUMOR, Dose [Carcinogen]: 20 MG/KG FOR FIRST 5 WK (STUDY DURATION: 52 WK), Promoter: NONE): 20/23 (87%), 18/20 (90%), -3.4%, not significant; tumour outcome (control, treated, inhibition, significance) (Carcinogen: 1,2-DIMETHYLHYDRAZINE [540-73-8], Dose [Inhibitor]: 0, 0.001% (W/V BASED ON TOTAL CHLORINS) IN DRINKING WATER BEGINNING 1 WK POST CARCINOGEN TREATMENT FOR THE DURATION STUD, Strain/Sex: F344/MALE, Target Tissue: Type of Lesion: SMALL INTESTINE: TUMOR, Dose [Carcinogen]: 20 MG/KG BW/WK FOR FIRST 5 WK (STUDY DURATION: 52 WK), Promoter: NONE): 12/23 (52%), 6/20 (30%), 42%, not significant; tumour outcome (control, treated, inhibition, significance) (Carcinogen: 1,2-DIMETHYLHYDRAZINE [540-73-8], Dose [Inhibitor]: 0, 0.01% (W/V BASED ON TOTAL CHLORINS) IN DRINKING WATER BEGINNING 1 WK POST CARCINOGEN TREATMENT FOR THE DURATION STUDY, Strain/Sex: F344/MALE, Target Tissue: Type of Lesion: SMALL INTESTINE: TUMOR, Dose [Carcinogen]: 20 MG/KG BW/WK FOR FIRST 5 WK (STUDY DURATION: 52 WK), Promoter: NONE): 12/23 (52%), 11/20 (55%), -6%, not significant; tumour outcome (control, treated, inhibition, significance) (Carcinogen: 1,2-DIMETHYLHYDRAZINE [540-73-8], Dose [Inhibitor]: 0, 0.1% (W/V BASED ON TOTAL CHLORINS) IN DRINKING WATER BEGINNING 1 WK POST CARCINOGEN TREATMENT FOR THE DURATION STUDY, Strain/Sex: F344/MALE, Target Tissue: Type of Lesion: SMALL INTESTINE: TUMOR, Dose [Carcinogen]: 20 MG/KG BW/WK FOR FIRST 5 WK (STUDY DURATION: 52 WK), Promoter: NONE): 12/23 (52%), 5/20 (25%), 52%, not significant; tumour outcome (control, treated, inhibition, significance) (Carcinogen: 1,2-DIMETHYLHYDRAZINE [540-73-8], Strain/Sex: F344/MALE, Target Tissue: Type of Lesion: COLON: TUMOR, Dose [Carcinogen]: 20 MG/KG FOR FIRST 5 WK (STUDY DURATION: 52 WK), Promoter: NONE): 20/23 (87%), 20/20 (100%), -15%, not significant; tumour outcome (control, treated, inhibition, significance) (Carcinogen: 2-AMINO-1-METHYL-6-PHENYL-1H-IMIDAZO[4,5-B]PYRID INE, 105650-23-5, Dose [Inhibitor]: 0, 1% IN THE DIET FOR 52 WK (STUDY DURATION: 52 WK), Strain/Sex: F344/FEMALE, Target Tissue: Type of Lesion: MAMMARY GLAND: ADENOCARCINOMA, Dose [Carcinogen]: 0.02% IN THE DIET FOR 52 WK, Promoter: NONE USED): 8/20 (40%), 3/20 (15%), 63%, not significant; tumour outcome (control, treated, inhibition, significance) (Carcinogen: 2-AMINO-1-METHYL-6-PHENYL-1H-IMIDAZO[4,5-B]PYRID INE, 105650-23-5, Dose [Inhibitor]: 0, 1% IN THE DIET FOR 52 WK (STUDY DURATION: 52 WK), Strain/Sex: F344/FEMALE, Target Tissue: Type of Lesion: MAMMARY GLAND: FIBROADENOMA, Dose [Carcinogen]: 0.02% IN THE DIET FOR 52 WK, Promoter: NONE USED): 2/20 (10%), 0/20 (0%), 100%, not significant; tumour outcome (control, treated, inhibition, significance) (Carcinogen: 2-AMINO-3-METHYLIMIDAZO[4,5-F]QUINOLINE [76180-96-6], Dose [Inhibitor]: 0, 0.001% (W/V BASED ON TOTAL CHLORINS) IN DRINKING WATER BEGINNING 1 WK POST CARCINOGEN TREATMENT FOR THE DURATION STUD, Strain/Sex: F344/MALE, Target Tissue: Type of Lesion: COLON: TUMOR, Dose [Carcinogen]: 0.03% IN DIET FOR FIRST 5 WK (STUDY DURATION: 52 WK), Promoter: NONE): 2/22 (9%), 2/20 (10%), -11%, not significant; tumour outcome (control, treated, inhibition, significance) (Carcinogen: 2-AMINO-3-METHYLIMIDAZO[4,5-F]QUINOLINE [76180-96-6], Dose [Inhibitor]: 0, 0.001% (W/V BASED ON TOTAL CHLORINS) IN DRINKING WATER BEGINNING 1 WK POST CARCINOGEN TREATMENT FOR THE DURATION STUD, Strain/Sex: F344/MALE, Target Tissue: Type of Lesion: LIVER: TUMOR, Dose [Carcinogen]: 0.03% IN DIET FOR FIRST 5 WK (STUDY DURATION: 52 WK), Promoter: NONE): 16/22 (73%), 12/20 (60%), 18%, not significant; tumour outcome (control, treated, inhibition, significance) (Carcinogen: 2-AMINO-3-METHYLIMIDAZO[4,5-F]QUINOLINE [76180-96-6], Dose [Inhibitor]: 0, 0.001% (W/V BASED ON TOTAL CHLORINS) IN DRINKING WATER BEGINNING 1 WK POST CARCINOGEN TREATMENT FOR THE DURATION STUD, Strain/Sex: F344/MALE, Target Tissue: Type of Lesion: SKIN: TUMOR, Dose [Carcinogen]: 0.03% IN DIET FOR FIRST 5 WK (STUDY DURATION: 52 WK), Promoter: NONE): 7/22 (32%), 5/20 (25%), 22%, not significant; outcome (Carcinogen: 2-AMINO-3-METHYLIMIDAZO[4,5-F]QUINOLINE [76180-96-6], Dose [Inhibitor]: 0, 0.001% (W/V BASED ON TOTAL CHLORINS) IN DRINKING WATER BEGINNING 1 WK POST CARCINOGEN TREATMENT FOR THE DURATION STUD, Strain/Sex: F344/MALE, Target Tissue: Type of Lesion: SMALL INTESTINE: TUMOR, Dose [Carcinogen]: 0.03% IN DIET FOR FIRST 5 WK (STUDY DURATION: 52 WK), Promoter: NONE): 0/22 (0%), 1/20 (5%), -%, not significant; tumour outcome (control, treated, inhibition, significance) (Carcinogen: 2-AMINO-3-METHYLIMIDAZO[4,5-F]QUINOLINE [76180-96-6], Dose [Inhibitor]: 0, 0.001% (W/V BASED ON TOTAL CHLORINS) IN DRINKING WATER BEGINNING 1 WK POST CARCINOGEN TREATMENT FOR THE DURATION STUD, Strain/Sex: F344/MALE, Target Tissue: Type of Lesion: ZYMBAL'S GLAND: TUMOR, Dose [Carcinogen]: 0.03% IN DIET FOR FIRST 5 WK (STUDY DURATION: 52 WK), Promoter: NONE): 5/22 (23%), 3/20 (15%), 35%, not significant; tumour outcome (control, treated, inhibition, significance) (Carcinogen: 2-AMINO-3-METHYLIMIDAZO[4,5-F]QUINOLINE [76180-96-6], Dose [Inhibitor]: 0, 0.01% (W/V BASED ON TOTAL CHLORINS) IN DRINKING WATER BEGINNING 1 WK POST CARCINOGEN TREATMENT FOR THE DURATION STUDY, Strain/Sex: F344/MALE, Target Tissue: Type of Lesion: COLON: TUMOR, Dose [Carcinogen]: 0.03% IN DIET FOR FIRST 5 WK (STUDY DURATION: 52 WK), Promoter: NONE): 2/22 (9%), 2/20 (10%), -11%, not significant; tumour outcome (control, treated, inhibition, significance) (Carcinogen: 2-AMINO-3-METHYLIMIDAZO[4,5-F]QUINOLINE [76180-96-6], Dose [Inhibitor]: 0, 0.01% (W/V BASED ON TOTAL CHLORINS) IN DRINKING WATER BEGINNING 1 WK POST CARCINOGEN TREATMENT FOR THE DURATION STUDY, Strain/Sex: F344/MALE, Target Tissue: Type of Lesion: LIVER: TUMOR, Dose [Carcinogen]: 0.03% IN DIET FOR FIRST 5 WK (STUDY DURATION: 52 WK), Promoter: NONE): 16/22 (73%), 10/20 (50%), 31.5%, not significant; tumour outcome (control, treated, inhibition, significance) (Carcinogen: 2-AMINO-3-METHYLIMIDAZO[4,5-F]QUINOLINE [76180-96-6], Dose [Inhibitor]: 0, 0.01% (W/V BASED ON TOTAL CHLORINS) IN DRINKING WATER BEGINNING 1 WK POST CARCINOGEN TREATMENT FOR THE DURATION STUDY, Strain/Sex: F344/MALE, Target Tissue: Type of Lesion: SKIN: TUMOR, Dose [Carcinogen]: 0.03% IN DIET FOR FIRST 5 WK (STUDY DURATION: 52 WK), Promoter: NONE): 7/22 (32%), 7/20 (35%), -9%, not significant
